{"source": "patent US9114171B2", "about": "“Racecadotril liquid compositions” (McNeil-PPC, Inc., priority 2012, dated 2015)", "key": {"[1]": {"experiment": "Stability of Racecadotril in Buffer", "assay_type": "physicochemical", "experimental": "(§1) For comparative purposes, the stability of racecadotril was analyzed when solubilized in pH 4.5 Acetate buffer and pH 4.5 Citrate buffer (Table 4). Test Methods Sample Preparation: • 1. Pipet 1 mL of Racecadotril solution into a 100 mL volumetric flask (V.F.) • 2. Dilute to volume with the same buffer used in the solution preparation. • 3. Further dilute the sample solution to about 0.1 mg/mL if necessary. […] Parameters may be modified to optimize chromatography. • The assay of Racecadotril is determined by using the external standard injected. The degradation products levels are determined by % peak area relative to the Racecadotril peak. Chromatographic Conditions (European Pharmacopoeia Racecadotril Method): […]"}, "[2]": {"experiment": "Stability of Racecadotril in Beta-Hydroxypropyl-Cyclodextrin (Beta-HPCD), Table 5", "assay_type": "physicochemical", "experimental": "Formulations of racecadotril in beta-hydroxypropyl-cyclodextrin were evaluated (Table 5).\nas §1, with “Test” for “For comparative purposes, the stability of racecadotril was analyzed when solubilized in pH 4.5 Acetate buffer and pH 4.5 Citrate buffer (Table 4). Test”"}}, "data": [{"smiles": "CC(=O)SCC(Cc1ccccc1)C(=O)NCC(=O)OCc1ccccc1", "note": "(racemic) [Racecadotril]", "values": [{"measurement": "solubility in buffer versus water", "setting": "[1]", "result": "more soluble in buffer than in water"}, {"measurement": "stability in buffer versus water", "setting": "[1]; 40° C. and 4 weeks", "result": "more stable in a buffer than in water"}, {"measurement": "solubility utilizing Beta-HPCD", "setting": "[2]", "result": "higher solubility was achieved utilizing the Beta-HPCD"}, {"measurement": "stability in Beta-HPCD versus buffers alone", "setting": "[2]; 40° C.", "result": "stability is similar to that in buffers alone"}]}]}
